In patent publication US20160106747A1, “TREATING POSTOPERATIVE MECHANICAL STRESS WITH AN ECTOINE” (Bitop AG, priority 2008, published 2016):
Entries after “also recorded” stand apart in the source; their conditions may differ.

Legend:
[1] = tested on: Small intestine segments of rats; assay: Cold ischemic storage (18 h, 4° C.) of rat small intestine segments in POLYSOL with or without ectoine, then in vitro reperfusion; details: for LDH liberation: ectoine (5 mg/kg) added to POLYSOL, 18 h at 4° C.
Protocol: Small intestine segments of rats were removed under standard conditions and immediately irrigated with a cold common salt solution and subsequently with a POLYSOL solution (supplied by Doorzand Medical Innovations, Amsterdam/NL). The small intestine segments removed were kept ischemically in 50 ml of nutrient solution at 4° C. for 18 hours; in half of these cases ectoine (5 mg/kg) was added to the POLYSOL solution. Following this storage time at 4° C. reperfusion of the small intestine segments took place in vitro at 37° C. using a modified KHB medium (5% Dextran 78, 0.95% KHB, 0.37 g/L CaCl2, 2 g/L glucose, 0.6 g/L dexamethasone, 70 mg/L atropine and 0.21% sodium bicarbonate). For oxygen supply purposes a mixture of 95% O2 and 5% CO2 was used. The partial pressure of the oxygen was constantly kept at more than 500 mm/hg. When reperfusion had been completed all tissue samples were deep-frozen at −80° C. in liquid nitrogen and examined to ascertain their condition, the lactate dehydrogenase (LDH) liberation and nitrite liberation as a measure of NO. Generally speaking, the formation of NOx is an indicator for (oxidative) stress to which a tissue sample is subjected.

[2] = tested on: rats with TNBS-induced enteritis; assay: Enteritis induced in rats with trinitrobenzol sulfonic acid (TNBS), oral ectoine; assay type: in vivo
Protocol: For the purpose of closer investigation an animal model involving rats was prepared to induce enteritis by administering 10 mg/kg of trinitrobenzol sulfonic acid in 50% ethanol using a light ether anesthesia. Lesions developed which were examined macroscopically four days later. Ectoine was administered orally in various doses (30 to 300 mg/kg) for one week before the rats were given TNBS and four days thereafter.

CC1=N[C@H](C(=O)O)CCN1 [ectoine, (4S)-2-methyl-1,4,5,6-tetrahydropyrimidine-4-carboxylic acid]
LDH liberation ([1]; after 15 min reperfusion): 8.8+/−3.42 U/I | LDH liberation ([1]; after 30 min reperfusion): 25.4+/−8.2 U/I | NOx− formation ([1]; ectoine-doped POLYSOL samples after reperfusion): 0.325 ± 1.05 mmol/L | condition of the microvilli (microscopic examination) ([1]; tissue samples after 30-minute reperfusion, compared with samples in POLYSOL only): much better condition; also recorded: considerably improved condition of the microvilli | extent of the lesions (macroscopic examination) ([2]; TNBS 10 mg/kg in 50% ethanol, ectoine oral 30 to 300 mg/kg for one week before TNBS and four days thereafter, lesions examined four days later): capable of alleviating the extent of the lesions | histopathological examination of the large intestine ([2]; TNBS enteritis): protective effect of ectoine could be confirmed | glutathione level in the large intestine ([2]; TNBS enteritis, oral ectoine): caused the glutathione level in the large intestine to go down | myeloperoxidase activity ([2]; TNBS enteritis, oral ectoine): prevented changes of the myeloperoxidase activity | level of mediators (IKAM-1, DNFα, IL-1β, IL-10, LTB4, PGE2) ([2]; in the blood and in the tissue of the large intestine, TNBS enteritis): prevented changes of the level of various mediators | dose giving the maximum effect on lesions ([2]; oral, doses of 30 to 300 mg/kg tested): 100 mg/kg | effect compared with reference active agent sulfasalazine ([2]; sulfasalazine 300 mg/kg as reference, TNBS enteritis): comparable to that of sulfasalazine
